From ChEMBL document CHEMBL5257060, “Trust Your Gut: Strategies and Tactics for Intestinally Restricted Drugs” (ACS Med Chem Lett, 2023) come the findings set out here.

SMILES strings stand for the structures. Bounds are passed on as bounds.

The nature of data set [1]: Cmax in mouse colon at 10 mg/kg, po. Format: ADME, organism-based. On the set-up: dose 10 mg/kg, route po.
Data set [2] can be described thus: Cmax in mouse plasma at 10 mg/kg, po. Also noted: dose 10 mg/kg, route po. In kind it is ADME, organism-based.
A short description of data set [3]: Apparent permeability in human Caco-2 cells. Format: ADME, cell-based.
Data set [4] can be described thus: Efflux ratio of apparent permeability in human Caco-2 cells. Format: ADME, cell-based. (Caco-2 cells form a polarised layer with tight junctions and transporters.)
Data set [5] in a line: Cmax in rat at 30 mg/kg, po. Format: ADME, organism-based. On the set-up: dose 30 mg/kg, route po. As to conditions: in vivo.
Data set [6] can be described thus: Drug recovery in feces of rats at 30 mg/kg, po. In kind it is ADME, organism-based. As to conditions: rat, faeces, read-out: Drug recovery.
The target of data set [7] is T1, Sodium/hydrogen exchanger 3 (Homo sapiens, UniProt P48764).
T1 sequence (P48764 whole entry): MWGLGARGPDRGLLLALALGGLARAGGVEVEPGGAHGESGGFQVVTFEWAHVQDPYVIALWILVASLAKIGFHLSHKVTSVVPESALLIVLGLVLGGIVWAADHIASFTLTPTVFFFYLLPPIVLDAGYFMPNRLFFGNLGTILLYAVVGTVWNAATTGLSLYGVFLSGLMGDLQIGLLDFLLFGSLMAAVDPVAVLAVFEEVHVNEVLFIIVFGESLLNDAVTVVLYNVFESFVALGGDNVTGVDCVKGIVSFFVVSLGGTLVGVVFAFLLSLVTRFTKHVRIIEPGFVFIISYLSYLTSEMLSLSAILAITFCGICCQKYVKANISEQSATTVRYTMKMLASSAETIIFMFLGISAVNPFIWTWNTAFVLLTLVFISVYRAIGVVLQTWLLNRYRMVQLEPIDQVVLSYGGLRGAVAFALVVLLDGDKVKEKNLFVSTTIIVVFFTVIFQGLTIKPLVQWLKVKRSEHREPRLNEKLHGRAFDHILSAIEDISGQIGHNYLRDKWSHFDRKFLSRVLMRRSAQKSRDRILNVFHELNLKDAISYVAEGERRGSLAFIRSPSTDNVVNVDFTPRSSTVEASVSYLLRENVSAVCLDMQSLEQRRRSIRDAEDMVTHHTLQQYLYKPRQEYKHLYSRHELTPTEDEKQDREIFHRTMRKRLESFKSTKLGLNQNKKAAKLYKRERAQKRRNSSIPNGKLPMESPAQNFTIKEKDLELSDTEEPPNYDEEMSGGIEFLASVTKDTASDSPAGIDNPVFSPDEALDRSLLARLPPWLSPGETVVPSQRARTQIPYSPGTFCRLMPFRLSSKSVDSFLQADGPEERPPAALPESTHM
The data set is described as follows: Inhibition of human NHE3.

Data set [8] is described as follows: Drug recovery in feces of rats at 20 mg, po. Format: ADME. The conditions noted are these: rat, faeces, read-out: Drug recovery.
Data set [9] in a line: Drug concentration in mouse intestine at 30 mg/kg, po measured for 2 hr. Format: ADME, organism-based. As to conditions: read-out: Ct.
Data set [10] can be described thus: Drug concentration in mouse plasma at 30 mg/kg, po measured for 2 hr. Format: ADME, organism-based.
A short description of data set [11]: Apparent permeability across apical to basolateral side in human Caco-2 cells. In kind it is ADME, cell-based.
For data set [12], the target named is T2, G-protein coupled bile acid receptor 1 (Mus musculus, UniProt Q80SS6).
T2 sequence (Q80SS6 whole entry): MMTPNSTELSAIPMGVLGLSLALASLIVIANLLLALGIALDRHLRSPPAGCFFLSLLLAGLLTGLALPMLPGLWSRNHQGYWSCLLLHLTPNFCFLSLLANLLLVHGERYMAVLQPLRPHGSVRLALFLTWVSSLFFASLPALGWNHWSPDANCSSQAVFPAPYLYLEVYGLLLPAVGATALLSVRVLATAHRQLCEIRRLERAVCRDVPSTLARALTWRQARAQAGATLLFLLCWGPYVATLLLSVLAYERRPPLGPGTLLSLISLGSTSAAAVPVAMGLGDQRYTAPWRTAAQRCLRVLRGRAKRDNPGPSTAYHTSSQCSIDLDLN
The data set is described as follows: Inhibition of mouse TGR5.

A short description of data set [13]: Cmax in ICR mouse plasma at 150 mg/kg, po measured at 1 hr post dose. In kind it is ADME, organism-based. On the set-up: time 1 hrs, dose 150 mg/kg, route po.
Data set [14] is described as follows: Apparent permeability across apical to basolateral side in human Caco-2 cells by PAMPA assay. In kind it is ADME, cell-based.
A further data set has as its target Dipeptidyl peptidase 4 (Mus musculus, UniProt P28843). The data set is described as follows: Inhibition of mouse DPP4.
Data set [15] in a line: Cmax in mouse colon content at 10 mg/kg, po. On the set-up: dose 10 mg/kg, route po. In kind it is ADME, organism-based.
Data set [16] in a line: Cmax in rat plasma at 10 mg/kg, po. Format: ADME, organism-based. Also noted: dose 10 mg/kg, route po.
The nature of data set [17]: AUC in mouse at 5 mg/kg, po. Format: ADME, organism-based. On the set-up: dose 5 mg/kg, route po. As to conditions: in vivo.
Data set [18] in a line: Drug recovery in feces of mouse at 5 mg/kg, po. As to conditions: faeces, read-out: Drug recovery. In kind it is ADME, organism-based.

Dipeptidyl peptidase 4, sequence (P28843 whole entry): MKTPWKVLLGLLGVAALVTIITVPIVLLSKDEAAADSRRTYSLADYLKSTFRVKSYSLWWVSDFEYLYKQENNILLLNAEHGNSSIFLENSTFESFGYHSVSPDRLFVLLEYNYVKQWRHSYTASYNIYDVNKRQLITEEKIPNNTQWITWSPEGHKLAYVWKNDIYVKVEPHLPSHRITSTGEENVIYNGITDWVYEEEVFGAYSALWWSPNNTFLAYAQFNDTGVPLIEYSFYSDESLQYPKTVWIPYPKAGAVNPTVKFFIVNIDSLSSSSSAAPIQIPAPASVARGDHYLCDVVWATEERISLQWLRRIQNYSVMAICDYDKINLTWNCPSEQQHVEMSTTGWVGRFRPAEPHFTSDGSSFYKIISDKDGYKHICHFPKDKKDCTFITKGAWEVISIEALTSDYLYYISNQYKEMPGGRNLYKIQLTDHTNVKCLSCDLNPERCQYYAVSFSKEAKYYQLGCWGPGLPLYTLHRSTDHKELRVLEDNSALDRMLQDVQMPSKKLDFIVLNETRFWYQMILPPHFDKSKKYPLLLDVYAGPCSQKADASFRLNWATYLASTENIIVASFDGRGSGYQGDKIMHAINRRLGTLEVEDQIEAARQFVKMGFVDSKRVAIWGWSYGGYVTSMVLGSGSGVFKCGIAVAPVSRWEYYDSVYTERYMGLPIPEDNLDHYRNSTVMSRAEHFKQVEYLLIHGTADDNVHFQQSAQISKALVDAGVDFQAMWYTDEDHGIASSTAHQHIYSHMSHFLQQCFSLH

In general, Cmax refers to the highest concentration seen after dosing. Usually Papp stands for the rate of passage across a membrane or cell layer, normalised by area and donor concentration. What is called efflux ratio is the permeability from basolateral to apical divided by that in the opposite direction, in the common usage. Take `Cc1cc(Nc2cc3ncccc3c(NC3C[C@H]4CC[C@@H](C3)N4CCC#N)n2)n[nH]1` (some centres not stated): the results for the Cmax in data set [1] and in data set [2] were 9.17 µM and 0.003 µM, respectively. For the same compound, the Papp in data set [3] turned out to be 1.17 ×10⁻⁶ cm/s. Also, in data set [4], the efflux ratio was 32.5.

The IC50 is the concentration at which inhibition is half-maximal. Lower therefore signals higher potency. In turn, `CN1Cc2c(Cl)cc(Cl)cc2[C@@H](c2cccc(S(=O)(=O)NCCOCCOCCNC(=O)NCCCCNC(=O)NCCOCCOCCNS(=O)(=O)c3cccc([C@@H]4CN(C)Cc5c(Cl)cc(Cl)cc54)c3)c2)C1` came in with a Cmax in data set [5] of less than 0.5 ng/mL. The dose excreted in data set [6] was 92%. The compound further registered an IC50 in [7] of 0.5 nM.

As to `CCCCC1(CCCC)CS(=O)(=O)c2ccc(N(C)C)cc2[C@@H](c2ccc(OCc3ccc(C[N+]45CCN(CC4)CC5)cc3)cc2)[C@H]1O` [MARALIXIBAT], the dose excreted in data set [8] turned out to be 94%.

As for `Cc1cc(C)c(S(=O)(=O)N(CCc2cccc(Br)c2)Cc2ccc(-c3cccc(S(C)(=O)=O)c3)cc2)c(C)c1`, the concentration at 2 h worked out at 30 µM in [9] and 0.006 µM in [10].

By Papp A→B is commonly meant the apparent permeability from the apical to the basolateral side of a cell layer. Consider `CN(CC[N+](C)(C)C)C(=O)CCc1cc(Cl)c(Oc2ccsc2C(=O)N2CCN(C3CC3)c3ccccc32)cc1Cl.O=C([O-])C(F)(F)F`, for which, in [11], the Papp A→B stood at 0.06 ×10⁻⁶ cm/s.

A word on the EC50: it is the concentration that produces a half-maximal response. For `CC#CCn1c(N2CCC[C@H](NC(=O)CCOCCOCCOCCOCCOCCOCCN(C)C(=O)CCc3cc(Cl)c(Oc4ccncc4C(=O)N4CCN(C5CC5)c5ccccc54)cc3Cl)C2)nc2c1c(=O)n(Cc1nc(C)c3ccccc3n1)c(=O)n2C`, the EC50 in [12] worked out at 17 nM. In data set [13], this compound gave a Cmax of 101 ng/mL. Moreover, the Papp A→B in data set [14] turned out to be 0.03 ×10⁻⁶ cm/s. The half-inhibitory concentration (IC50) against Dipeptidyl peptidase 4 came to 70000 nM.

As for `Cc1cccc(Oc2cc(Oc3cccc(C)n3)cc(Oc3cccc(C)n3)c2)n1` [AMELENODOR], the Cmax in [15] is 1e+07 ng/g; in data set [1], 150000 ng/g; in data set [16], 57 ng/mL.

In data set [12], `CO[C@@H]1C[C@@H]2C[C@H](O)CC[C@]2(C)[C@H]2CC[C@]3(C)[C@@H]([C@H](C)CCC(=O)N(C)C[C@H](O)[C@@H](O)[C@H](O)[C@H](O)CO)CC[C@H]3[C@H]12` gave an EC50 of 62.3 nM.

What is called AUC is concentration integrated over time. Low readings indicate low exposure, high ones high exposure. Consider `CO[C@@H]1CC[C@@]2(C)[C@H](CC(OS(=O)(=O)[O-])[C@@H]3[C@@H]2CC[C@]2(C)[C@@H]([C@H](C)CCc4nnn[nH]4)CC[C@@H]32)C1.[Na+]` (some centres not stated), for which the AUC in data set [17] was found to be 4840 ng·h/mL. Further, the dose excreted in data set [18] came out at 89%. The Papp A→B in data set [11] stood at 0.4 ×10⁻⁶ cm/s.
